Assay results: patent US20210403924A1, “Method for selecting cells based on CRISPR/Cas-mediated integration of a detectable tag to a target protein” (Hoffmann-La Roche Inc., priority 2018, published 2021)

Assays:
Format in all cases: cell-based
human TUBA1B locus [1] = test: Knock-in Strategy V3: eGFP knock-in at TUBA1B, CD4 pool sorting and hygromycin B selection, FACS screen of clones for FITC signal; conditions: HEK293A
Protocol: In the Knock-in Strategy V3, the Cas9 nuclease and the sgRNA were combined on a single plasmid. This additionally contained a CD4 marker for selection. The donor plasmid corresponded to that of the strategy V2. Thus, the double selection was carried out via hygromycin B for the donor plasmid, as well as for CD4 for the nuclease/gRNA plasmid.
In the Knock-in Strategy V3, the cells were transfected with the circular or linear donor plasmid and a pCas-Guide EF1α-CD4 plasmid. This plasmid, referred to as “all-in-one”, encodes the Cas9 nuclease, a gRNA and CD4. The selection was made in this strategy via hygromycin B for the donor plasmid, and with CD4 for the Cas9 nuclease and the gRNA. Three different pCas-Guide-EF1α-CD4 plasmids were used, each coding for one of the three gRNAs. […] About 48 hours after transfection, the cells were stained with an APC-conjugated anti-CD4 antibody. HEK293A wild-type cells natively express no CD4, so these cells defined the APC negative gate. Only cells that had taken up the pCas-Guide-EF1α-CD4 plasmid expressed CD4 on the cell surface, which was detectable by FACS via the elevated APC signal after staining with the antibody. […] The transfected cells are between 63% and 86% in the APC positive gate. Comparing the samples with linear and circular donor plasmid from each gRNA, it was possible to see that proportionally more APC and, thus, CD4 positive cells were detected in the samples with the circular donor plasmid. From each transfection approximately 5×10^5 CD4 positive cells were deposited as a cell pool using FACS sorting (FIG. 16).
The cells were cultured after pool sorting for 24 h in 6-well plates. Next, selection with hygromycin B was performed for the donor plasmid for 10 days. Subsequently, single cells from each transfection were deposited in four 96-well plates. Differences in the FITC signal between the wild-type and the transfected samples were evident in the enlarged view of the histograms. […] Gating on FITC-positive cells was therefore almost impossible. To the extent possible, viable single cells were deposited from the FITC-positive gate (FIG. 17).
Three weeks after single cell deposition, the first screening of the clones for the FITC signal followed and, thus, the presence of eGFP in the FACS. Previously, an average growth rate of 43% had been determined microscopically. A total of 952 clones were screened, of which 33 were identified as potentially positive clones. This corresponded to an efficiency of 3.4%. No clones could be identified in the three samples 1L, 3L and 3Z. Again, it was possible to see that the circular donor plasmid samples yielded more potentially positive clones than did samples with the linearized donor plasmid (Table 7).
In the knock-in V3, the pCas9-Guide-EF1α-CD4 plasmid contains a CD4 cassette as a selection marker. To select the CD4-positive cells, the cells were harvested 48 hours after transfection and washed twice with PBS. Next, the cells were resuspended in 250 μL FACS buffer and 5 μL α-CD4-Alexa 647 antibody added. This corresponded to a final antibody concentration of 1.5 μg/mL. After one hour of incubation on ice in the dark, the cells were washed three times with FACS buffer and then measured. For pool sorting, approximately 1.5×10^5 CD4-positive cells per sample were sorted into a 15 mL Falcon in which 5 mL of complete medium had already been placed. Subsequently, the cells were centrifuged for 5 min. at 300 g, resuspended in 3 mL fresh complete medium and seeded into a 6-well plate. After 24 hours the cells were again adherent and could be selected with hygromycin B on the donor plasmid. Once the selected cells had matured, the single-cell deposition in the 96-well format was again carried out.
The methodology was used primarily for the screening of the generated clones. For this purpose, the medium was completely removed from the 96-well plates, the cells were detached with 25 μL Accutase and resuspended with 40 μL FACS buffer. […]

human TUBA1B locus [2] = test: Knock-in Strategy V2: eGFP knock-in at TUBA1B, puromycin and hygromycin B double selection, FACS screen of clones for FITC signal; conditions: for Efficiency (potentially positive clones / clones examined) / Number of potential clones (total number of examined clones in parentheses): HEK293A
Protocol: In the Knock-in Strategy V2, a Cas9-encoding plasmid comprising a puromycin-resistance cassette was co-transfected with a circular donor plasmid with a hygromycin B-resistance cassette as well as specific, synthetic crRNA and tracrRNA. The selection was carried out as double selection with hygromycin B for the donor plasmid and puromycin for the Cas9-encoding plasmid.
In the Knock-in Strategy V2, the cells were transfected with the identical crRNAs and tracrRNAs, as well as the Cas9-PuroR plasmid as in the Knock-in Strategy V1. Each of the three crRNAs (SEQ ID NO: 07-09) was combined with the linearized or circular donor plasmid with the hygromycin B-resistance cassette. Selection was performed via puromycin for the Cas9 plasmid and hygromycin B for the donor plasmid for a total of 10 days. Four 96-well plates with FITC-positive, viable single cells were subsequently deposited from each transfection. Differences in the FITC signal between the wild-type and the transfected cells were evident in the enlarged view of the histograms. The proportion of FITC-positive cells was between 0.4% and 3.8%. […] The most intense signal was found in the sample of crRNA3 and the circular donor plasmid (FIG. 13).
After a three-week incubation in the incubator, the growth rate of the deposited single cells was determined microscopically. It averaged 34.3%. All grown clones were analyzed by FACS for their FITC signal. An eGFP expression in the cells leads to the detection of an increased FITC signal compared to the wild-type, i.e. non-transfected cells. A total of 118 potentially positive clones were identified from a total of 496 analyzed clones. This corresponded to an overall efficiency of […]. The proportion of potentially positive clones among the samples containing the circular donor plasmid was 33.3%, more than twice as high as that for the linearized donor plasmid at 15.3% (Table 4).
(§1) Using FACS sorting, the transfected and partially already selected cells were sorted. These were harvested, washed with PBS and adjusted to a cell number of 1×10^6 cells/mL in FACS buffer. After the desired cell population had been gated and all settings made on the device for sorting, the selected cells could be […]. The single cell deposit was performed in 96-well format. The plates were stored with 200 μL of medium per well at 37° C. in order to temper the medium and to keep the cell's stress as low as possible. Each knock-in trial involved deposition in between 20 and 24 plates. The cells then needed about 3 weeks in the incubator at 37° C. and 5% CO2 for growth. All plates were analyzed microscopically to determine the growth rate and the clones were then examined for eGFP expression.
(§2) The methodology was used primarily for the screening of the generated clones. For this purpose, the medium was completely removed from the 96-well plates, the cells were detached with 25 μL Accutase and resuspended with 40 μL FACS buffer. 40 μL of cell suspension was transferred to a 96-well conical-bottomed plate and measured directly on the FACS Canto II from BD. The eGFP signals of the clones were always referenced with HEK293A wild-type cells. The evaluation was done with the FlowJo v10.0.7 software. Potentially positive clones with a distinct eGFP signal were expanded and further characterized.

human TUBA1B locus [3] = test: Knock-in Strategy V1: eGFP knock-in at TUBA1B, puromycin single selection, FACS screen of clones for FITC signal; conditions: HEK293A
Protocol: In the Knock-in Strategy V1, a Cas9-encoding plasmid comprising a puromycin-resistance cassette was co-transfected with a circular donor plasmid without a selection marker as well as specific synthetic crRNA and tracrRNA. The selection was carried out exclusively with puromycin on the Cas9-encoding plasmid.
In the first knock-in strategy, the cells were transfected with the Cas9-PuroR plasmid, the circular donor plasmid, as well as specific, synthetic crRNA and tracrRNA. The selection was made exclusively on the Cas9 plasmid with puromycin for 10 days. Thereafter, single cells of the cells transfected with crRNA1 (SEQ ID NO: 07) or crRNA2 (SEQ ID NO: 08), respectively, were deposited in ten 96-well plates. […] The increased FITC signal can be attributed to the expression of eGFP, which is only possible if the eGFP sequence from the donor plasmid has been introduced in-frame into a translated region in the genome, since the start codon is missing.
The growth rate of the deposited single cells was determined microscopically after 3 weeks, and totaled 63%. Subsequently, the cells by FACS were analyzed for their FITC signal (results in Table 1).
as §1, §2

[4] = Plates from gate P3, circular donor plasmid
[5] = Plates from gate P4 (FITC-positive), circular donor plasmid

Row | Substance | Efficiency (potential clones / clones examined) (human TUBA1B locus [1]; Circular donor plasmid) | Number of potential clones (total number of examined clones in parentheses) (human TUBA1B locus [1]; Circular donor plasmid) | Efficiency (potential clones / clones examined) (human TUBA1B locus [1]; Linear donor plasmid) | Number of potential clones (total number of examined clones in parentheses) (human TUBA1B locus [1]; Linear donor plasmid) | Efficiency (potentially positive clones / clones examined) (human TUBA1B locus [2]; Circular donor plasmid) | Number of potential clones (total number of examined clones in parentheses) (human TUBA1B locus [2]; Circular donor plasmid) | Efficiency (potentially positive clones / clones examined) (human TUBA1B locus [2]; Linear donor plasmid) | Number of potential clones (total number of examined clones in parentheses) (human TUBA1B locus [2]; Linear donor plasmid) | cells of the clones in the FITC-positive range (human TUBA1B locus [2]; clones with circular donor plasmid, after long-term cultivation, FACS) | Efficiency (potentially positive clones / clones examined) (human TUBA1B locus [3]; [4]) | Number of potentially positive clones (total number of examined clones in parentheses) (human TUBA1B locus [3]; [4]) | Efficiency (potentially positive clones / clones examined) (human TUBA1B locus [3]; [5]) | Number of potentially positive clones (total number of examined clones in parentheses) (human TUBA1B locus [3]; [5])
1 | gRNA2: TUBA1B-specific gRNA encoded on the pCas-Guide-EF1α-CD4 all-in-one plasmid, oligos SEQ ID NO: 03 and 04 (DNA 1 GATCGGGCCAGGCTGGTGTCCAGATG; DNA 2 AAAACATCTGGACACCAGCCTGGCCC; the letters are possibly those of the target site) | 6.5% | 14 (214) | 3.6% | 7 (195) | – | – | – | – | – | – | – | – | –
2 | crRNA3: TUBA1B-specific synthetic crRNA (Dharmacon), SEQ ID NO: 09, GAGCTCTACTGCCTGGAACA (synthetic crRNA bought from a supplier, chemistry not given here) | – | – | – | – | 60.7% | 37 (61) | 39.3% | 33 (84) | over 87% | – | – | – | –
3 | crRNA1: TUBA1B-specific synthetic crRNA (Dharmacon), SEQ ID NO: 07, GAGTGCATCTCCATCCACGT (synthetic crRNA bought from a supplier, chemistry not given here) | – | – | – | – | 53.3% | 40 (75) | 7.2% | 7 (97) | – | 0.44% | 2 (452) | 16.1% | 11 (68)
4 | gRNA1: TUBA1B-specific gRNA encoded on the pCas-Guide-EF1α-CD4 all-in-one plasmid, oligos SEQ ID NO: 01 and 02 (DNA 1 GATCGGAGTGCATCTCCATCCACGTG; DNA 2 AAAACACGTGGATGGAGATGCACTCC; the letters are possibly those of the target site) | 19.4% | 12 (62) | 0% | 0 (195) | – | – | – | – | – | – | – | – | –
5 | gRNA3: TUBA1B-specific gRNA encoded on the pCas-Guide-EF1α-CD4 all-in-one plasmid, oligos SEQ ID NO: 05 and 06 (DNA 1 GATCGGAGCTCTACTGCCTGGAACAG; DNA 2 AAAACTGTTCCAGGCAGTAGAGCTCC; the letters are possibly those of the target site) | 0% | 0 (105) | 0% | 0 (212) | – | – | – | – | – | – | – | – | –
6 | crRNA2: TUBA1B-specific synthetic crRNA (Dharmacon), SEQ ID NO: 08, GGCCAGGCTGGTGTCCAGAT (synthetic crRNA bought from a supplier, chemistry not given here) | – | – | – | – | 1% | 1 (98) | 0% | 0 (81) | – | 0.25% | 1 (399) | 14.7% | 9 (64)
